Data taken from patent US20260070902A1, “SULFONYL DERIVATIVES AS CCR6 INHIBITORS” (Hoffmann-La Roche Inc., priority 2022, published 2026).

Key:
Type in all cases: cell-based
human CCR6 [1] = biological target: T1, human CCR6 (Homo sapiens, UniProt P51684); experiment: Human CCR6-CRE reporter assay; parameters: The second construct contained the open reading frame of human CCR6 in the pUNO1 backbone; host or cells: 293FT cells; details: relative -Log IC50; 293FT cells transfected with human CCR6 and CRE-luciferase reporter; 6 μM Forskolin, 6 nM CCL20; 5 h
T1 sequence (P51684 1-374): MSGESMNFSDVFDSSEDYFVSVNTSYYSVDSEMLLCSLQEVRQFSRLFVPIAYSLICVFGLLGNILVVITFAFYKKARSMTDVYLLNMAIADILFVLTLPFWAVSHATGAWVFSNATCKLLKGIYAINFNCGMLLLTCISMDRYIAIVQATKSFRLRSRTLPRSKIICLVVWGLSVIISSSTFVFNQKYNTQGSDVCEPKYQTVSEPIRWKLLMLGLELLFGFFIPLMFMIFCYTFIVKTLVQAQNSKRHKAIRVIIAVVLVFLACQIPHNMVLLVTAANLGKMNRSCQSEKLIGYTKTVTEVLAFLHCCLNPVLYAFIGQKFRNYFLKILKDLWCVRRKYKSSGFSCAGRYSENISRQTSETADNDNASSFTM
Procedure, shortened: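 293FT cells transiently co-transfected with human CCR6 and a CRE-luc2P reporter, used 48 h later. Compounds incubated with cells in medium containing 6 μM Forskolin and 6 nM CCL20 (assay-medium levels), 0.1% DMSO final, 5 h at 37° C; luminescence read, relative −Log IC50 from four-parameter fit.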

human CCR6 [2] = biological target: T1, human CCR6; experiment: CHO-K1 CCR6 chemotaxis assay towards CCL20; details: relative -Log IC50; CHO-K1 cells overexpressing human CCR6; migration towards 100 ng/ml CCL20; 4 h
Procedure, shortened: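 Human CCR6-overexpressing CHO-K1 cells (2*10^6 cells/ml) were preincubated 30 min at 37 °C with compound (0.2% DMSO), then allowed to migrate 4 h through 8 µm Transwell pores toward 100 ng/ml CCL20. Migrated cells were counted by CellTiter Glo. −Log IC50 came from four-parameter fits normalised to DMSO without/with CCL20.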

Human CD4+ T cells = experiment: CD4+ T cells chemotaxis assay towards CCL20; details: Homo sapiens, CD4+ T cell, 3 h, relative -Log IC50, human CD4+ T cells stimulated with anti-CD3 and anti-CD28, migration towards 150 ng/ml CCL20
Procedure, shortened: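 Donor cells were stimulated overnight with anti-CD3/anti-CD28, then preincubated with compound for 30 min at 37° C (0.2% DMSO final). Migration through […]-pore Transwells toward 150 ng/ml CCL20 ran for 3 h at 37° C. Migrated cells were counted by CellTiter Glo, and relative −Log IC50 came from a four-parameter fit of % inhibition.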

An IC50 (human CCR6 [1]) of 0.1 µM, an IC50 (human CCR6 [2]) of 0.126 µM and an IC50 (Human CD4+ T cells) of 0.0251 µM were found for `N#Cc1c[nH]c2ccc(-c3ccc(S(=N)(=O)[C@H]4CC[C@H](Nc5ccc(S(F)(F)(F)(F)F)cc5)CC4)cc3)cc12` (stereo partly drawn) [Example 85, 5-(4-{[trans-4-{[4-(pentafluoro-λ^6-sulfanyl)phenyl]Amino}cyclohexyl]sulfonimidoyl}phenyl)-1H-indole-3-carbonitrile] in this work.

An IC50 (human CCR6 [1]) of 0.126 µM, an IC50 (human CCR6 [2]) of 0.0794 µM and an IC50 (Human CD4+ T cells) of 0.0794 µM were found for `Cc1n[nH]c2ccc(-c3ccc(S(=N)(=O)[C@H]4CC[C@H](Nc5ccc(S(F)(F)(F)(F)F)cc5)CC4)cc3)cc12` (stereo partly drawn) [Example 86, [4-(3-methyl-1H-indazol-5-yl)phenyl][trans-4-{[4-(pentafluoro-λ^6-sulfanyl)phenyl]Amino}cyclohexyl](imino)-λ^6-sulfanone] in this work.

An IC50 (human CCR6 [1]) of 0.2 µM, an IC50 (human CCR6 [2]) of 0.126 µM and an IC50 (Human CD4+ T cells) of 0.158 µM were found for `N=S(=O)(c1ccc(-c2ccc3nccn3c2)cc1)[C@H]1CC[C@H](Nc2ccc(S(F)(F)(F)(F)F)cc2)CC1` (stereo partly drawn) [Example 87, (4-{imidazo[1,2-a]pyridin-6-yl}phenyl)[trans-4-{[4-(pentafluoro-λ^6-sulfanyl)phenyl]Amino}cyclohexyl](imino)-λ^6-sulfanone] in this work.

An IC50 (human CCR6 [1]) of 0.158 µM, an IC50 (human CCR6 [2]) of 0.0794 µM and an IC50 (Human CD4+ T cells) of 0.0398 µM were found for `Cc1cnc2ccc(-c3ccc(S(=N)(=O)[C@H]4CC[C@H](Nc5ccc(S(F)(F)(F)(F)F)cc5)CC4)cc3)cn12` (stereo partly drawn) [Example 89, (4-{3-methylimidazo[1,2-a]pyridin-6-yl}phenyl)[trans-4-{[4-(pentafluoro-λ^6-sulfanyl)phenyl]Amino}cyclohexyl](imino)-λ^6-sulfanone] in this work.

An IC50 (human CCR6 [1]) of 0.158 µM, an IC50 (human CCR6 [2]) of 0.0631 µM and an IC50 (Human CD4+ T cells) of 0.0251 µM were found for `N#Cc1cnc2ccc(-c3ccc(S(=N)(=O)[C@H]4CC[C@H](Nc5ccc(S(F)(F)(F)(F)F)cc5)CC4)cc3)cn12` (stereo partly drawn) [Example 90, 6-(4-{[trans-4-{[4-(pentafluoro-λ^6-sulfanyl)phenyl]Amino}cyclohexyl]sulfonimidoyl}phenyl)imidazo[1,2-a]pyridine-3-carbonitrile] in this work.

An IC50 (human CCR6 [1]) of 0.1 µM, an IC50 (human CCR6 [2]) of 0.0631 µM and an IC50 (Human CD4+ T cells) of 0.0794 µM were found for `CC(C)c1nnc2cnc(-c3ccc(S(=N)(=O)[C@H]4CC[C@H](Nc5ccc(S(F)(F)(F)(F)F)cc5)CC4)cc3)cn12` (stereo partly drawn) [Example 162, {4-[3-(propan-2-yl)-[1,2,4]triazolo[4,3-a]pyrazin-6-yl]phenyl}[trans-4-{[4-(pentafluoro-λ^6-sulfanyl)phenyl]amino}cyclohexyl](imino)-λ^6-sulfanone] in this work.

An IC50 (human CCR6 [1]) of 0.501 µM, an IC50 (human CCR6 [2]) of 2 µM and an IC50 (Human CD4+ T cells) of 10 µM were found for `Cc1nnc2cnc(-c3ccc(S(=N)(=O)[C@H]4CC[C@H](Nc5ccc(S(F)(F)(F)(F)F)cc5)CC4)cc3)cn12` (stereo partly drawn) [Example 170, (4-{3-methyl-[1,2,4]triazolo[4,3-a]pyrazin-6-yl}phenyl) [trans-4-{[4-(pentafluoro-λ^6-sulfanyl)phenyl]amino}cyclohexyl](imino)-λ^6-sulfanone] in this work.

An IC50 (human CCR6 [1]) of 0.02 µM, an IC50 (human CCR6 [2]) of 0.00794 µM and an IC50 (Human CD4+ T cells) of 0.001 µM were found for `CC(C)c1nnc2ccc(-c3ccc(S(=O)(=O)N4CCC(Nc5ccc(S(F)(F)(F)(F)F)cn5)CC4)cc3)cn12` [Example 172, 5-(pentafluoro-λ^6-sulfanyl)-N-(1-{4-[3-(propan-2-yl)-[1,2,4]triazolo[4,3-a]pyridin-6-yl]benzenesulfonyl}piperidin-4-yl)pyridin-2-amine] in this work.

An IC50 (human CCR6 [1]) of 0.0316 µM, an IC50 (human CCR6 [2]) of 0.00398 µM and an IC50 (Human CD4+ T cells) of 0.00251 µM were found for `O=S(=O)(c1ccc(-c2ccc3nccn3c2)cc1)N1CCC(Nc2ccc(S(F)(F)(F)(F)F)cn2)CC1` [Example 173, N-[1-(4-{imidazo[1,2-a]pyridin-6-yl}benzenesulfonyl)piperidin-4-yl]-5-(pentafluoro-λ^6-sulfanyl)pyridin-2-amine] in this work.

An IC50 (human CCR6 [1]) of 0.0251 µM, an IC50 (human CCR6 [2]) of 0.00501 µM and an IC50 (Human CD4+ T cells) of 0.00251 µM were found for `Cc1nnc2ccc(-c3ccc(S(=O)(=O)N4CCC(Nc5ccc(S(F)(F)(F)(F)F)cn5)CC4)cc3)cn12` [Example 174, N-[1-(4-{3-methyl-[1,2,4]triazolo[4,3-a]pyridin-6-yl}benzenesulfonyl)piperidin-4-yl]-5-(pentafluoro-λ^6-sulfanyl)pyridin-2-amine] in this work.

An IC50 (human CCR6 [1]) of 0.02 µM, an IC50 (human CCR6 [2]) of 0.01 µM and an IC50 (Human CD4+ T cells) of 0.00501 µM were found for `NC(=O)c1cc(-c2ccc(S(=O)(=O)N3CCC(Nc4ccc(S(F)(F)(F)(F)F)cn4)CC3)cc2)ccn1` [Example 175, 4-{4-[(4-{[5-(pentafluoro-λ^6-sulfanyl)pyridin-2-yl]amino}piperidin-1-yl)sulfonyl]phenyl}pyridine-2-carboxamide] in this work.

An IC50 (human CCR6 [1]) of 0.126 µM, an IC50 (human CCR6 [2]) of 0.01 µM and an IC50 (Human CD4+ T cells) of 0.00158 µM were found for `O=S(=O)(c1ccc(-c2ccc3nnc(C(F)F)n3c2)cc1)[C@H]1CC[C@H](Nc2ccc(S(F)(F)(F)(F)F)cc2)CC1` [Example 176, 4-(pentafluoro-λ^6-sulfanyl)-N-[trans-4-{4-[3-(difluoromethyl)-[1,2,4]triazolo[4,3-a]pyridin-6-yl]benzenesulfonyl}cyclohexyl]aniline] in this work.

An IC50 (human CCR6 [1]) of 0.0794 µM, an IC50 (human CCR6 [2]) of 0.0794 µM and an IC50 (Human CD4+ T cells) of 0.0126 µM were found for `NC(=O)c1cc(-c2ccc(S(=O)(=O)N3CCC(Nc4ccc(S(F)(F)(F)(F)F)cc4)CC3)cc2)ccn1` [Example 177, 4-{4-[(4-{[4-(pentafluoro-λ^6-sulfanyl)phenyl]amino}piperidin-1-yl)sulfonyl]phenyl}pyridine-2-carboxamide] in this work.

An IC50 (human CCR6 [1]) of 0.0631 µM, an IC50 (human CCR6 [2]) of 0.01 µM and an IC50 (Human CD4+ T cells) of 0.000794 µM were found for `CC(C)c1nnc2ccc(-c3ccc(S(=O)(=O)[C@H]4CC[C@H](Nc5ccc(S(F)(F)(F)(F)F)cn5)CC4)cc3)cn12` [Example 178, 5-(pentafluoro-λ^6-sulfanyl)-N-[trans-4-{4-[3-(propan-2-yl)-[1,2,4]triazolo[4,3-a]pyridin-6-yl]benzenesulfonyl}cyclohexyl]pyridin-2-amine] in this work.

An IC50 (human CCR6 [1]) of 0.0794 µM, an IC50 (human CCR6 [2]) of 0.01 µM and an IC50 (Human CD4+ T cells) of 0.00631 µM were found for `Cc1nnc2ccc(-c3ccc(S(=O)(=O)[C@H]4CC[C@H](Nc5ccc(S(F)(F)(F)(F)F)cn5)CC4)cc3)cn12` [Example 179, 5-(pentafluoro-λ^6-sulfanyl)-N-[trans-4-(4-{3-methyl-[1,2,4]triazolo[4,3-a]pyridin-6-yl}benzenesulfonyl)cyclohexyl]pyridin-2-amine] in this work.

An IC50 (human CCR6 [1]) of 0.1 µM, an IC50 (human CCR6 [2]) of 0.0251 µM and an IC50 (Human CD4+ T cells) of 0.00794 µM were found for `O=S(=O)(c1ccc(-c2ccc3nccn3c2)cc1)[C@H]1CC[C@H](Nc2ccc(S(F)(F)(F)(F)F)cn2)CC1` [Example 180, 5-(pentafluoro-λ^6-sulfanyl)-N-[trans-4-(4-{imidazo[1,2-a]pyridin-6-yl}benzenesulfonyl)cyclohexyl]pyridin-2-amine] in this work.
